Source: ChEMBL document CHEMBL6121006, “Marine natural product-inspired discovery of novel BRD4 inhibitors with anti-inflammatory activity” (Eur J Med Chem, 2025)
Active and inactive are the calls of the source. No cut-off for these calls is given here.

How the values were obtained:
[1] = test system: RAW264.7; assay: Anti-inflammatory activity in mouse RAW264.7 cells assessed as inhibition of LPS-induced NO production at 10 uM preincubated with compound for 24 hrs followed by LPS stimulation by Griess reagent based analysis relative to control; type: functional; design: scale not given: the % may be the effect or the level left
[2] = target: T1, Bromodomain-containing protein 4 (Homo sapiens, UniProt O60885); assay: Inhibition of human recombinant BRD4 BD2 (349 to 460 residues) extracted from Escherichia coli BL21 (DE3) at 10 uM incubated for 2 hrs by TR-FRET assay relative to control
[3] = target: T1, Bromodomain-containing protein 4; assay: Inhibition of human recombinant BRD4 BD1 (42 to 167 residues) extracted from Escherichia coli BL21 (DE3) at 10 uM incubated for 2 hrs by TR-FRET assay relative to control
[4] = target: T1, Bromodomain-containing protein 4; assay: Inhibition of BRD4 (unknown origin)
[5] = target: T1, Bromodomain-containing protein 4; assay: Inhibition of human recombinant BRD4 BD1 (42 to 167 residues) extracted from Escherichia coli BL21 (DE3) incubated for 2 hrs by TR-FRET assay
[6] = target: T1, Bromodomain-containing protein 4; assay: Inhibition of human recombinant BRD4 BD2 (349 to 460 residues) extracted from Escherichia coli BL21 (DE3) incubated for 2 hrs by TR-FRET assay
[7] = test system: RAW264.7; assay: Anti-inflammatory activity in mouse RAW264.7 cells assessed as inhibition of LPS-induced NO production preincubated with compound for 24 hrs followed by LPS stimulation by Griess reagent based analysis; type: functional, cell-based
[8] = target: T1, Bromodomain-containing protein 4; assay: Selectivity index, ratio of IC50 for human recombinant BRD4 BD1 (42 to 167 residues) extracted from Escherichia coli BL21 (DE3) to IC50 for human recombinant BRD4 BD2 (349 to 460 residues) extracted from Escherichia coli BL21 (DE3)
[9] = test system: RAW264.7; assay: Anti-inflammatory activity in mouse RAW264.7 cells assessed as inhibition of LPS-induced IL-6 expression preincubated with compound for 2 hrs followed by LPS stimulation and measured after 6 hrs by RT-qPCR analysis; type: functional, cell-based; details: dose 2.5-20 µM, time 8.0 hrs
[10] = test system: THP-1; assay: Anti-inflammatory activity in human THP-1 cells assessed as inhibition of LPS-induced IL-6 expression preincubated with compound for 2 hrs followed by LPS stimulation and measured after 6 hrs by RT-qPCR analysis; type: functional, cell-based; details: dose 2.5-20 µM, time 8.0 hrs
[11] = test system: RAW264.7; assay: Anti-inflammatory activity in mouse RAW264.7 cells assessed as inhibition of LPS-induced TNF-alpha expression preincubated with compound for 2 hrs followed by LPS stimulation and measured after 6 hrs by RT-qPCR analysis; type: functional, cell-based; details: dose 2.5-20 µM, time 8.0 hrs
[12] = test system: THP-1; assay: Anti-inflammatory activity in human THP-1 cells assessed as inhibition of LPS-induced TNF-alpha expression preincubated with compound for 2 hrs followed by LPS stimulation and measured after 6 hrs by RT-qPCR analysis; type: functional, cell-based; details: dose 2.5-20 µM, time 8.0 hrs

Compound | Activity [1] | inhibition [2] | inhibition [3] | IC50 [5] | IC50 [6] | Ratio IC50 [8] | other results
C[C@@H]1C[C@H]2[C@@H]3CCC4=CC(=O)C=C[C@]4(C)[C@@]3(F)[C@@H](O)C[C@]2(C)[C@@]1(O)C(=O)CO [DEXAMETHASONE] | 29% |  |  |  |  |  | 
COc1cc(OC)c2c(=O)[nH]c(C(=O)c3cc(OC)c(OC)c(OC)c3)nc2c1 |  | 17% | 11% |  |  |  | 
COc1cc(OC)c2c(=O)[nH]c(C(=O)c3ccc(OCCO)cc3)nc2c1 |  | 48% | 1.3% |  |  |  | 
COc1cc(OC)c2c(=O)[nH]c(C(=O)c3cc(F)ccc3F)nc2c1 |  | 46% | 10% |  |  |  | 
COc1cc(OC)c2c(=O)[nH]c(C(=O)c3ccc(OC)c(OC)c3)nc2c1 |  | 47% | 13% |  |  |  | 
O=C(c1ccc2ccccc2c1)c1nc2ccccc2c(=O)[nH]1 |  | 17% | 16% |  |  |  | 
O=C(c1ccc(O)cc1)c1nc2ccccc2c(=O)[nH]1 |  | 11% | 17% |  |  |  | 
Cc1nnn(C)c1-c1cnc2c3cc4cnn(C)c4cc3n([C@H](c3ccccc3)C3CCOCC3)c2c1 |  |  |  |  |  |  | IC50 [4]: 0.00245 µM
COc1cc(OC)c2c(=O)[nH]c(/C=C/c3ccc(Cl)cc3)nc2c1 | 11% | 54% | 23% | > 10 µM | > 10 µM |  | 
COc1cc(OC)c2c(=O)[nH]c(C(=O)c3cccc(C#N)c3)nc2c1 |  | 48% | 12% |  |  |  | 
COc1cc(OC)c2c(=O)[nH]c(C3CCN(Cc4ccccc4)CC3)nc2c1 | 89% | 46% | 51% | 7.87 µM | > 10 µM |  | IC50 [7]: 6.78 µM
COc1ccc(CCc2nc3cc(OC)cc(OC)c3c(=O)[nH]2)cc1 | 17% | 86% | 12% | > 10 µM | 0.74 µM | > 13 | 
COc1cc(OC)c2c(=O)[nH]c(C=C(c3ccccc3)c3ccccc3)nc2c1 | 21% | 66% | 3.1% | > 10 µM | 7.06 µM | > 1 | 
COc1ccc(Cc2nc3cc(OC)cc(OC)c3c(=O)[nH]2)cc1 | 15% | 75% | 56% | 4.59 µM | 1.52 µM | 3 | 
COc1cccc(/C=C/c2nc3cc(OC)cc(OC)c3c(=O)[nH]2)c1 | 78% | 67% | inactive |  | > 10 µM |  | inhibition [5]: inactive; IC50 [7]: 5.22 µM
COc1cc(OC)c2c(=O)[nH]c(/C=C/c3ccc(N(C)C)cc3)nc2c1 | 24% | 74% | 24% | > 10 µM | 0.47 µM | > 21 | 
COc1cc(OC)c2c(=O)[nH]c(CC(C)c3ccc(C(C)(C)C)cc3)nc2c1 (stereo not given) | 3.4% | 97% | 54% | > 10 µM | 0.74 µM | > 13 | 
COc1ccc(C(=O)c2nc3cc(OC)cc(OC)c3c(=O)[nH]2)cc1 | 6.4% | 51% | inactive |  | 3.93 µM | > 10 | inhibition [5]: inactive
COc1cc(C(=O)c2nc3ccccc3c(=O)[nH]2)cc(OC)c1OC |  | 15% | 22% |  |  |  | 
COc1cc(OC)c2c(=O)[nH]c(C(=O)c3ccc(F)cc3)nc2c1 | 18% | 52% | inactive |  | 1.84 µM | > 10 | inhibition [5]: inactive
COc1cc(OC)c2c(=O)[nH]c(/C(C)=C/c3ccccc3)nc2c1 | 6.8% | 59% | 20% | > 10 µM | 1.33 µM | > 7 | 
COc1cc(OC)c2c(=O)[nH]c(/C=C/c3cc(OC)c(O)c(OC)c3)nc2c1 | 18% | 98% | 13% | > 10 µM | 0.39 µM | > 26 | 
COc1ccc(C(=O)c2nc3cc(OC)c(I)c(OC)c3c(=O)[nH]2)cc1 | 14% | 53% | 10% | > 10 µM | > 10 µM |  | 
COc1cc(OC)c2c(=O)[nH]c(-c3cc(C)c(OCCO)c(C)c3)nc2c1 [APABETALONE] | 74% | 99% |  |  |  |  | Activity [9]: Dose-dependent-effect; Activity [10]: Dose-dependent-effect; Activity [11]: Dose-dependent-effect; Activity [12]: Dose-dependent-effect; IC50 [7]: 8.76 µM
COc1ccc(C(=O)c2nc3ccccc3c(=O)[nH]2)cc1 | 5.4% | 42% | 54% | 2.16 µM |  |  | 
COc1cc(OC)c2c(=O)[nH]c(C(=O)c3cccc(C(F)(F)F)c3)nc2c1 | 12% | 53% | 13% | > 10 µM | > 10 µM |  | 
